The record followed here is patent US5242945A, “Tetronic and thiotetronic acid derivatives as phospholipase A2 inhibitors” (American Home Products Corporation, priority 1991, dated 1993).

Assay [1] has as its target T1, human platelet PLA2 (Homo sapiens, UniProt P14555).
T1 construct: platelet acid extract PLA2; from tissue; host or cells: human platelets, semipurified acid extract
T1 sequence (P14555 21-144): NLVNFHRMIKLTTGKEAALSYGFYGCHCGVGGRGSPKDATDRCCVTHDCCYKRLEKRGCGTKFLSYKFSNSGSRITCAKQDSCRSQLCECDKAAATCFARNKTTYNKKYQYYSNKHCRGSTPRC
The assay can be described thus: in vitro isolated phospholipase A2 assay, human platelet PLA2. The assay is classed as biochemical. As to conditions: for inhibition at 10 µM / inhibition at 50 µM: read-out: % Inhibition HP (human platelet). The protocol: (§1) The compounds of the invention are tested in an in vitro isolated phospholipase A2 assay to determine the ability of the test compounds to inhibit the release of arachidonic acid from an arachidonic acid-containing substrate by the action of phospholipase A2 enzyme from human and non-human sources.
(§2) Into a 15 mL polypropylene tube are added the following:
(§3) ^3 H-AA E. coli substrate^1
(§4) Tris-HCl (0.5 M) pH 7.5^3
(§5) PLA2 25 Volume yielding 12%
(§6) 100 hydrolysis in 10 min.
(§7) *pre-incubate at room temperature 30 min prior to substrate addition.
(§8) ^6 Two human PLA2 enzymes are used: a) Semipurified human
(§9) platelet acid extract PLA2 (in 10 mM sodium acetate buffer, pH 4.5).
(§10) Remove protein precipitate by centrifugation at about 2200 rpm for 10
(§11) minutes. b) Purified human synovial fluid.
(§12) Incubate the 100 μL reaction mixture for 10 minutes at 37° C. in a shaking water bath. The reaction is terminated by the addition of 2 mL tetrahydrofuran, followed by vortexing. NH2 columns (100 μg/mL--Analytichem International) are conditioned with 0.5 mL tetrahydrofuran followed by 0.5 mL tetrahydrofuran/water (2 mL:0.1 mL, v/v).
(§13) The sample is loaded onto the columns and slowly drawn through them. The hydrolyzed arachidonic acid retained in the columns is eluted therefrom with 1 mL tetrahydrofuran/glacial acetic acid (2%). The arachidonic acid is transferred to scintillation vials and quantitated by β-counting analysis. A "total counts" sample is prepared by pipetting 25 μL ^3 H-arachidonate E. coli directly into a scintillation vial to which is added 1 mL tetrahydrofuran. 10 mL aquasol (scintillation cocktail) is added to all samples.

In assay [2] the target is T2, human synovial fluid PLA2 (Homo sapiens, UniProt P14555).
T2 construct: Purified human synovial fluid; from tissue; host or cells: human synovial fluid
T2 sequence (P14555 21-144): T1 sequence (P14555 21-144)
The assay can be described thus: in vitro isolated phospholipase A2 assay, human synovial fluid PLA2. The assay is classed as biochemical. The following applies: for inhibition at 10 µM / inhibition at 50 µM: read-out: % Inhibition HSF (human synovial fluid). The protocol:
as §1, §2, §3, §4, §5, §6, §7, §8, §9, §10, §11, §12, §13

For assay [3], the system named is cyclooxygenase (PGE2). The assay can be described thus: resident murine peritoneal macrophage assay, PGE2. The assay is classed as cell-based, mouse (Swiss Webster). As to conditions: Mus musculus, Peritoneal macrophage; reference compounds; 95% confidence limits on next line; read-out: IC50 PGE2. The protocol:
The ability of the compounds of the invention to act as inhibitors of the enzymes 5-lipoxygenase and cyclooxygenase is measured in the resident murine peritoneal macrophage assay.
Resident peritoneal macrophages are collected from female Swiss Webster mice (49 days old, 20-25 gms, Buckshire) by lavaging with 7-8 ml Hanks Balanced Salt Solution (HBSS) without Ca^++ and Mg^++ (GIBCO). The lavage fluid from several mice is pooled and centrifuged at 4° C. for 10 minutes at 400 xg. The cell pellet is resuspended in Medium 199 (GIBCO) with HEPES buffer containing 100 μg/ml gentamicin. Two ml of the cell suspension (4×10^6 cells) are then plated on 35 mm culture dishes (Nunc).
A macrophage monolayer is established after a 1-1.5 hour incubation of the cells at 37° C. in an atmosphere of […] and 5% CO2. The monolayers are washed 2× with 2 ml HBDSS, containing Ca^++ and Mg^++ after which 2 ml Medium 199 supplemented with 10% freshly thawed heat-inactivated fetal bovine serum and 100 μg/ml gentamicin is added for an overnight incubation.
Residual serum and cellular debris are removed from the monolayers by washing 3× with 2 ml HBSS containing Ca^++ and Mg^++. Macrophages are preincubated for 5 minutes with 1 ml serum-free M199 containing 10 μl dimethyl sulfoxide (DMSO) vehicle or test compound prior to cell activation with zymosan ([…]) or arachidonic acid (AA) (2 μM). After 2 hours, the supernatants are removed and either assayed for LTC4 and PGE2 by radioimmunoassay (RIA) directly or stored at -20° C. In all cases, results are expressed as ng metabolite/4×10^6 cells.
Raw data (dpm) may be stored directly onto an "Autostart" tape using the HP85 in room C-096. The raw data are converted to ng metabolite/4-10^6cells using the standard curve by a "RIANAL" program (HP85) or a "NONLIN" program (HP9816). Results are then expressed as percent inhibition of zymosan induced, leukotriene or prostaglandin synthesis (control) using the equation: [formula]

[4] abbreviates: at 10 μM, + values given without explanation.

Usually inhibition stands for the share of the control response that was lost under treatment. Take `CCCCCCCC[C@@H]1C[C@@H]1CCCCCCCC(=O)C1=C(O)CSC1=O` (relative stereo) [Example 52, 4-Hydroxy-3-[(Z)-8-(2-octylcyclopropyl)-1-oxooctyl]-2(5H)-thiophenone]: the inhibition at 10 µM is 8.4% in assay [1] (setting [4]) and 18.6% in assay [2] (setting [4]).
`CCCCCCCC/C=C/CCCCCCCC(=O)C1=C(O)COC1=O` [Example 36, 4-Hydroxy-3-((E)-1-oxo-9-octadecenyl)-2(5H)-furanone]: the inhibition at 10 µM was 25.4% in assay [1] (setting [4]) and 10.3% in assay [2] (setting [4]).
For the molecule `CCCCCCCC/C=C\CCCCCCCC(=O)OCC(CCC(=O)C1=C(O)COC1=O)OC(=O)CCCCCCC/C=C\CCCCCCCC` (stereo not shown) [Example 24, (Z)-9-Octadecanoic acid 5-(2,5-dihydro-4-hydroxy-3-furanyl)-5-oxo-1,2-pentanediyl ester], the values for the inhibition at 10 µM in assay [1] (setting [4]) and in assay [2] (setting [4]) were 56.6% and 79.5%, respectively.
Consider `CCCCCCCCCCCCNC(=O)OCC(CCC(=O)C1=C(O)COC1=O)OC(=O)NCCCCCCCCCCCC` (stereo not shown) [Example 31, Dodecylcarbamic acid 5-(2,5-dihydro-4-hydroxy-2-oxo-3-furanyl)-5-oxo-1,2-pentanediyl ester], for which the inhibition at 10 µM in assay [1] (setting [4]) is 33.5%; in assay [2] (setting [4]), 34.5%.
As for `CCCCCCCC/C=C\CCCCCCCCNC(=O)OC(CCC(=O)O)COC/C=C(\C)CCC=C(C)C` (stereo not shown) [Example 40A, 5-[((E)-3,7-Dimethyl-2,6-octadienyl)oxy]-4-[[((Z)-9-octadecenylamino)carbonyl]oxy]pentanoic acid], the inhibition at 10 µM in assay [1] (setting [4]) is 87.7%; in assay [2] (setting [4]), 74.2%.
On the same counts, the results for `CC(C)(C)CC(C)(C)c1ccc(OCCCCCC(=O)C2=C(O)COC2=O)cc1` [Example 39] are 24.4% and 20.3%.
For `O=C(CCCCCCCCOc1ccc(Cl)cc1)C1=C(O)COC1=O` [Example 29, 3-[9-(4-Chlorophenoxy)-1-oxononyl]-4-hydroxy-2(5H)-furanone], the results for the inhibition at 10 µM in assay [1] (setting [4]) and in assay [2] (setting [4]) were 20.6% and 33.6%, respectively.
For the molecule `CCCCCCCCC#CCCCCCCCC(=O)C1=C(O)COC1=O` [Example 27, 4-Hydroxy-3-(1-oxo-9-octadecynyl)-2(5H)-furanone], the inhibition at 10 µM in assay [1] (setting [4]) is 34.9%; in assay [2] (setting [4]), 31.2%.
As for `CCCCCCCC/C=C\CCCCCCCC(=O)C1=C(O)C(C)(C)OC1=O` [Example 17, (Z)-4-Hydroxy-5,5-dimethyl-3-(1-oxo-9-octadecenyl)-2(5H)-furanone], the inhibition at 10 µM in assay [1] (setting [4]) was 16%; in assay [2] (setting [4]), 9%.
Take `CCCCCCCc1ccc(OCCCCCC(=O)C2=C(O)COC2=O)cc1` [Example 37, 3-[6-(4-Heptylphenoxy)-1-oxohexyl]-4-hydroxy-2(5H)-furanone]: the inhibition at 10 µM in assay [1] (setting [4]) was 22.5%; in assay [2] (setting [4]), 35.7%.
Turning to `O=C(/C=C/c1cccc(C(F)(F)F)c1)C1=C(O)COC1=O` [Example 10, (E)-4-Hydroxy-3-(1-oxo-3-(3-(trifluoromethyl)phenyl)-2-propenyl)-2 (5H)-furanone], the inhibition at 10 µM in assay [1] (setting [4]) came out at 9.6%; in assay [2] (setting [4]), 34%.
On to `CCCCCCOc1ccc(OCCCCCC(=O)C2=C(O)COC2=O)cc1` [Example 33, 4-Hydroxy-3-[6-[4-(hexyloxy)phenoxy]-1-oxohexyl]-2(5H)-furanone], for which the figures for the inhibition at 10 µM in assay [1] (setting [4]) and in assay [2] (setting [4]) were 37.1% and 10%, respectively.
In the case of `CCCCCCCC/C=C\CCCCCCCC(=O)OCC(CCC(=O)O)OC(=O)CCCCCCC/C=C\CCCCCCCC` (stereo not shown) [Example 24A, 4,5-Bis[((Z)-1-oxo-9-octadecenyl)oxy]pentanoic acid], the figures for the inhibition at 10 µM in assay [1] (setting [4]) and in assay [2] (setting [4]) were 45.4% and 80.7%, respectively.
With `O=C(CCc1c[nH]c2ccccc12)C1=C(O)COC1=O` [Example 4, 4-Hydroxy-3-[3-(1H-indol-3-yl)-1-oxopropyl]-2(5H)-furanone], the inhibition at 50 µM was determined as 10% in assay [1] and 25% in assay [2].
Turning to `O=C(COCc1ccccc1)C1=C(O)COC1=O` [Example 3, 4-Hydroxy-3-[(phenylmethoxy)acetyl]-2(5H)-furanone], the figures for the inhibition at 50 µM in assay [1] and in assay [2] were 3.5% and 25%, respectively.
Take `CCCCCCCCCCCCCCCCCC(=O)C1=C(O)COC1=O` [Example 28, 4-Hydroxy-3-(1-oxooctadecyl)-2(5H)-furanone]: the inhibition at 10 µM was found to be 37.4% in assay [1] (setting [4]) and 12.6% in assay [2] (setting [4]).
Taken in the same sequence, the figures for `CCCCCCCCCCCCNC(=O)OCC(CCC(=O)O)OC(=O)NCCCCCCCCCCCC` (stereo not shown) [Example 31A, 4,5-Bis[[(Dodecylamino)carbonyl]oxy]pentanoic acid] were 47.7% and 43.2%.
Consider `O=C(CCc1ccccc1)C1=C(O)COC1=O` [Example 2, 4-Hydroxy-3-(1-oxo-3-phenylpropyl)-2(5H)-furanone], for which the inhibition at 50 µM in assay [1] turned out to be 8%; in assay [2] it was 27%.
`COc1ccc(/C=C/C(=O)C2=C(O)COC2=O)cc1OC` [Example 16, (E)-3-(3-(3,4-Dimethoxyphenyl)-1-oxo-2-propenyl)-4-hydroxy-2 (5H)-furanone]: the results for the inhibition at 10 µM in assay [1] (setting [4]) and in assay [2] (setting [4]) were 2.1% and 5.5%, respectively.
As to `O=C(CCCCCOc1ccc(OCc2ccc(Cl)cc2)cc1)C1=C(O)COC1=O` [Example 32, 4-Hydroxy-3-[6-[4-[(4-chlorophenyl)methoxyphenoxy]]1-oxohexyl]-2(5H)-furanone], the figures for the inhibition at 10 µM in assay [1] (setting [4]) and in assay [2] (setting [4]) were 31.6% and 15.1%, respectively.
Take “4-Hydroxy-3-(1-oxoeicosanoyl)-2(5H)-furanone [Example 11]”: the “% Inhibition HP (human platelet)” value in assay [1] (setting [4]) came out at 6.7%. The “% Inhibition HSF (human synovial fluid)” value in assay [2] (setting [4]) is 32%.
`O=C(CCCc1c[nH]c2ccccc12)C1=C(O)COC1=O` [Example 5, 4-Hydroxy-3-[4-(1H-indol-3-yl)-1-oxobutyl]-2(5H)-furanone]: the inhibition at 50 µM in assay [1] was 0%; in assay [2] it was 11%.
For orientation: IC50 means the point on the concentration scale where inhibition reaches its midpoint. In assay [2], `CC1=C(CC(=O)O)c2cc(F)ccc2/C1=C\c1ccc([S+](C)[O-])cc1` (stereo not shown) [sulindac, reference compound] had an IC50 of 30.2 µM.
As to `CCCCCC#CCC#CCC#CCC#CCCCC(=O)O` [ETYA, reference compound], the IC50 in assay [3] was 1.26 µM.
Regarding `COc1ccc(OC)c(/C=C/C(=O)C2=C(O)COC2=O)c1` [Example 13, (E)-3-(3-(2,5-Dimethoxyphenyl)-1-oxo-2-propenyl)-4-hydroxy-2 (5H)-furanone], the inhibition at 10 µM in assay [1] (setting [4]) is 11%; in assay [2] (setting [4]), 34%.
On to `O=C(CCCCCOc1ccc(Cl)cc1)C1=C(O)COC1=O` [Example 21, 4-Hydroxy-3-[6-(4-chlorophenoxy)-1-oxohexyl]-2(5H)-furanone], for which the inhibition at 10 µM in assay [1] (setting [4]) turned out to be 2.5%; in assay [2] (setting [4]), 24%.
Taken in the same sequence, the figures for `CCCCC[C@@H]1C[C@@H]1CC(=O)C1=C(O)COC1=O` (relative stereo) [Example 53, 4-Hydroxy-3-[(Z)-1-oxo-2-(2-pentylcyclopropy)ethyl]-2(5H)-furanone] were 1.7% and 0.1%.
